This test addresses human h-PGDS (Homo sapiens, UniProt O60760). Kind of test: Enzyme Immunoassay (EIA) method (Assay 2). The test is classed as biochemical. To be noted: assigned. From the text: The compounds of the present invention can be tested for enzymatic inhibiting activity against PGD2 Synthase according to either one of the following assays.
Assay 2: Enzyme Immunoassay (EIA) Method
• a. Preparation of 0.1M K2HPO4/KH2PO4 buffer (pH ˜7.4) • Prepare 0.1 M KH2PO4 from 1M KH2PO4 (Sigma, Cat# P-8709) • Prepare 0.1 M K2HPO4 from powder of K2HPO4 (Fisher, BP363-500) • Mix 0.1 M K2HPO4 with 0.1 M KH2PO4 to adjust pH to 7.4. • b. Preparation of 0.5% γ-globulin • Add 0.1 g of γ-globulin (Sigma, Cat# G-5009) to 20 mL 0.1 M K2HPO4/KH2PO4 buffer (pH ˜7.4) and make 1-ml/vial aliquots and store in −80° C. • c. Preparation of 100 mM GSH • Add 307 mg of GSH (Sigma, Cat# G-6529) to 10 mL 0.1 M K2HPO4/KH2PO4 buffer (pH ˜7.4) and store at −80° C. • d. Preparation of Reaction buffer: • 198 mL of 0.1M K2HPO4/KH2PO4 buffer (pH ˜7.4) • 2 mM GSH—Prepared from 100 mM GSH • 0.4 g Glycerol • 2 mL of 0.5% γ-globulin • Add 0.4 g of glycerol and 2 mL of 0.5% γ-globulin to 198 mL of 0.1 M K2HPO4/KH2PO4 • buffer (pH7.4). • Add 0.4 mL of 100 mM GSH to 19.6 ml reaction buffer before the assay (enough for two 96-well plates). • e. Preparation of FeCl2/citric acid stopping solution: (8 mg/mL FeCl2, 0.1 M citric acid) • Add 40 mg fresh FeCl2 (IGN, Cat# 158046) to 5 ml 0.1 M citric acid (Sigma, Cat# C0759). • f. Preparation of MOX reagent: • 10% EtOH-Add 1 mL of EtOH to 9 mL of ultra pure H2O • Dissolve 0.1 g of methoxylamine (Cayman, Cat# 400036/) in 10% EtOH (10 mL). • Add 0.82 g of sodium acetate (Cayman, Cat#400037) to MOX solution and dissolve. II. Materials and Method • Dimethylsulfoxide (DMSO; Sigma; Cat# D2650) • Prostaglandin D2-MOX express EIA kit (Caymen Chemical, Catalog No. 500151)
Before the assay, cool down 10 mL of acetone in polypropylene tubes and empty 96 well plates in ice. All the procedures except compound dilution are performed on ice.
• 1. Dilute Compound in DMSO
• 2. Dilute 2 μL of each above concentration of compound to 38 μL of reaction buffer in 96-well plates and mix. IV. Enzyme and Substrate Solution Preparation • 1. Preparation of 0.39 ng/μL enzyme solution (0.35 ng/μL at final after compound addition). • Mix 4 μL of 4 mg/mL human h-PGDS with 396 μL of reaction buffer (to give enzyme concentration 40 μg/mL). Add 46.8 μL of 40 μg/mL h-PGDS to 4.753 mL of reaction buffer to give a total volume of 4.8 mL • 2. Preparation of Substrate Solution (PGH2): Add 0.375 mL of 0.1 mg/mL of PGH2 to 1.625 mL acetone. V. Enzyme Reaction: • 1. Add 60 μL of enzyme solution to compound well and positive control (without compound) in U-bottom polypropylene plate on ice. • 2. Add 60 μL of reaction buffer and 6.6 μL of 5% DMSO in reaction buffer into negative control wells in the plate. • 3. Add 6.6 μL of diluted compound in reaction buffer to the compound wells and mix. • 4. Add 6.6 μL of 5% DMSO in reaction buffer to the positive control well. • 5. Incubate the plate in ice for at least 30 min. • 6. Add 20 μL of substrate (PGH2) solution to compound, negative and positive control wells in the U-bottom 96 well plate on ice. • 7. Dry the plate in cold room for about 25-28 min. • 8. Pipette 45 μL of enzyme solution (above) into 96-wells with dried PGH2 and mix 3 times. Incubate on the ice for 1 min. • 9. Add 45 μL of FeCl2 solution into each wells and mix. • 10. Add 90 μL of MOX solution and mix. • 11. Incubate for 30 min at 60° C. • 12. Dilute the samples 2500× with EIA buffer. VI. EIA assay • Perform the assay according to the procedure in EIA kit provided by Cayman. […]
human h-PGDS, sequence (O60760 whole entry): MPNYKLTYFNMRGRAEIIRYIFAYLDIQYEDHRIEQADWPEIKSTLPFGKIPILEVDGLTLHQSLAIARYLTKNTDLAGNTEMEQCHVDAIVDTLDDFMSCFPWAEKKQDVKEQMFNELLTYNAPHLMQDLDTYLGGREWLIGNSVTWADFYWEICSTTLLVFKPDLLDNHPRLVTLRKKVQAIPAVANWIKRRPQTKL
As usually defined, the IC50 is the point on the concentration scale where inhibition reaches its midpoint. The low end stands for greater potency in that assay, the high end for weaker potency in that assay. As for `NS(=O)(=O)c1cccc(CNC(=O)c2cnc(-c3cccc(F)c3)nc2)c1` [Example 55, 2-(3-Fluoro-phenyl)-pyrimidine-5-carboxylic acid 3-sulfamoyl-benzylamide], the IC50 was 31 nM.
For the molecule `CN(C)CC(C)(C)CNS(=O)(=O)c1cccc(CNC(=O)c2cnc(-c3cccc(F)c3)nc2)c1` [Example 65, 2-(3-Fluoro-phenyl)-pyrimidine-5-carboxylic acid 3-(3-dimethylamino-2,2-dimethyl-propylsulfamoyl)-benzylamide], inhibition was half-maximal at 35 nM (IC50).
Molecule `CNS(=O)(=O)c1cccc(CNC(=O)c2cnc(-c3cccc(F)c3)nc2)c1` [Example 97, 2-(3-Fluoro-phenyl)-pyrimidine-5-carboxylic acid 3-methylsulfamoyl-benzylamide] showed an IC50 of 9.5 nM.
For the molecule `Cc1nc(-c2cccc(F)c2)ncc1C(=O)NCc1cccc(CNS(C)(=O)=O)c1` [Example 68, 2-(3-Fluoro-phenyl)-4-methyl-pyrimidine-5-carboxylic acid 3-(methanesulfonylamino-methyl)-benzylamide], half-maximal inhibition (IC50) was put at 48.5 nM.
Consider `CN(C)CCNS(=O)(=O)c1cccc(CNC(=O)c2cnc(-c3cccc(F)c3)nc2)c1` [Example 63, 2-(3-Fluoro-phenyl)-pyrimidine-5-carboxylic acid 3-(2-dimethylamino-ethylsulfamoyl)-benzylamide], for which the IC50 was 45 nM.
In turn, `O=C(NCc1cccc(S(=O)(=O)NCCN2CCOCC2)c1)c1cnc(-c2cccc(F)c2)nc1` [Example 56] yielded an IC50 of 37 nM.
`CCNS(=O)(=O)c1cccc(CNC(=O)c2cnc(-c3cccc(F)c3)nc2)c1` [Example 45, 2-(3-Fluoro-phenyl)-pyrimidine-5-carboxylic acid 3-ethylsulfamoyl-benzylamide]: inhibition was half-maximal at 58 nM (IC50).
Molecule `Cc1nc(-c2cccc(F)c2)ncc1C(=O)NCc1cccc(CS(=O)(=O)NC(C)C)c1` [Example 71, 2-(3-Fluoro-phenyl)-4-methyl-pyrimidine-5-carboxylic acid 3-(isopropylsulfamoyl-methyl)-benzylamide] yielded a 50% inhibitory concentration (IC50) of 34 nM.
Molecule `O=C(NCc1cccc(S(=O)(=O)NCCCO)c1)c1cnc(-c2cccc(F)c2)nc1` [Example 49, 2-(3-Fluoro-phenyl)-pyrimidine-5-carboxylic acid 3-(3-hydroxy-propylsulfamoyl)-benzylamide] returned an IC50 of 22 nM.
The molecule `NS(=O)(=O)CCNC(=O)c1cnc(-c2ccccc2)nc1` [Example 108, 2-Pheny-pyrimidine-5-carboxylic acid (2-sulfamoyl-ethyl)-amide] displayed an IC50 of 55 nM.
Consider `CN(C)S(=O)(=O)CCNC(=O)c1cnc(-c2ccccc2)nc1` [Example 109, 2-Pheny-pyrimidine-5-carboxylic acid (2-dimethylsulfamoyl-ethyl)-amide], for which the IC50 turned out to be 82 nM.
Regarding `CNS(=O)(=O)c1cccc(CNC(=O)c2cnc(-c3cc(F)cc(F)c3)nc2)c1` [Example 40, 2-(3,5-Difluoro-phenyl)-pyrimidine-5-carboxylic acid 3-methylsulfamoyl-benzylamide], the 50% inhibitory concentration (IC50) turned out to be 49 nM.
In turn, `NS(=O)(=O)c1ccc(CNC(=O)c2cnc(-n3cccn3)nc2)cc1` [Example 117, 2-Pyrazol-1-yl-pyrimidine-5-carboxylic acid 4-sulfamoyl-benzylamide] yielded a 50% inhibitory concentration (IC50) of 266 nM.
For the molecule `NS(=O)(=O)c1ccc(NC(=O)c2cnc(-c3ccccc3)nc2)cc1` [Example 30, 2-Phenyl-pyrimidine-5-carboxylic acid (4-sulfamoyl-phenyl)-amide], 5 nM corresponded to half-maximal inhibition (IC50).
`O=C(NCc1cccc(S(=O)(=O)NC2CC2)c1)c1cnc(-c2cccc(F)c2)nc1` [Example 48, 2-(3-Fluoro-phenyl)-pyrimidine-5-carboxylic acid 3-cyclopropylsulfamoyl-benzylamide] displayed an IC50 of 132 nM.
Turning to `CNS(=O)(=O)c1cccc(CNC(=O)c2cnc(-c3cccc(F)c3)nc2C)c1` [Example 85, 2-(3-Fluoro-phenyl)-4-methyl-pyrimidine-5-carboxylic acid 3-methylsulfamoyl-benzylamide], it took 106 nM to reach half-maximal inhibition (IC50).

The values are drawn from US8202863B2 (Aventis Pharmaceuticals Inc., priority 2005, dated 2012).
